Measured values from patent publication US20020086342A1, “Assays for identifying phosphatase inhibitors” (priority 2000, published 2002).

Experiments:
GST-PTPbr7 [1] = target: T1, GST-PTPbr7 (Mus musculus, UniProt Q62132); assay: PTPbr7 inhibition assay: fluorogenic substrate (O-methyl fluorophosphate); type: biochemical; settings: sodium orthovanadate 1 mM; O-methyl fluorophosphate 10 μM; GST-PTPbr7 4 μg/mL; 30 min, room temperature; in absence of inhibitor 4100.00
T1 construct: purchased PanVera
T1 sequence (Q62132 24-656): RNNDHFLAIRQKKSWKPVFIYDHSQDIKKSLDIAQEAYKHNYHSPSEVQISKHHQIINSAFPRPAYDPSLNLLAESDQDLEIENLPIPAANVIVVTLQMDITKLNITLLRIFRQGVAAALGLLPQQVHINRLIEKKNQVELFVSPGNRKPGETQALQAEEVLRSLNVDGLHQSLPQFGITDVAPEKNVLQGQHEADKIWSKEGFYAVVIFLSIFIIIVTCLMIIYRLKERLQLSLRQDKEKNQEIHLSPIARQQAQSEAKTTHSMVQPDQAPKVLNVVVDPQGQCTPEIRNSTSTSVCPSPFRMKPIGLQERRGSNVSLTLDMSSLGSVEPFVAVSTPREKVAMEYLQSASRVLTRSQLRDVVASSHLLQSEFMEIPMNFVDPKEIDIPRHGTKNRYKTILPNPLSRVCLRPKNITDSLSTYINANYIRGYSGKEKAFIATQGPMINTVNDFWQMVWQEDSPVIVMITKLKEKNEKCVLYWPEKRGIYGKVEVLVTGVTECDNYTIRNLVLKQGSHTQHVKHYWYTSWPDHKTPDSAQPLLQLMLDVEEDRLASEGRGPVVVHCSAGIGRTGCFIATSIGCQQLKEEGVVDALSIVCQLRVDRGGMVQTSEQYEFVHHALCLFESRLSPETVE
Experimental: The ability of a test agent (positive control, non-specific tyrosine phosphatase inhibitor, sodium orthovanadate) to inhibit the dephosphorylation of a fluorogenic substrate by a PTPbr7 fusion protein was determined as follows.
80 μL of the diluted substrate (final concentration of 10 μM) was then added to each of two wells of a 96-well microtiter plate (COSTAR #3690 plate), followed by, in one of the wells, sodium orthovanadate (1 mM, final concentration), and in both wells, 20 μL of GST-PTPbr7 (4 μg, PanVera) to give a final enzyme concentration in each of the assays of 4 μg/mL. The reactions were incubated at room temperature for 30 min. For each reaction, the fluorescent emission was measured by excitation at 485 nm and emission at 535 nm using a Victor II plate reader (Packard). The presence of the test agent (sodium orthovanadate) in the reaction caused a decrease in the fluorescent signal (1250.00) compared to the reaction in the absence of inhibitor (4100.00).

GST-PTPbr7 [2] = target: T1, GST-PTPbr7; assay: PTPbr7 inhibition assay: peptide substrate (malachite green readout); type: biochemical; settings: sodium orthovanadate 1 mM; peptide ENDpYINASL 0.1 mM; GST-PTPbr7 4 μg; 30 min, 25° C., pH 7.4; in absence of inhibitor 0.65
Experimental: The ability of a test agent (positive control, non-specific tyrosine phosphatase inhibitor, sodium orthovanadate) to inhibit the dephosphorylation of a peptide having a phosphotyrosine residue by a PTPbr7 fusion protein was determined as follows.GST-PTPbr7 (4 μg, PanVera) is mixed together with the peptide [ENDpYINASL] (0.1 mM, American Peptide Company), with and without sodium orthovanadate (1 mM, SIGMA®-Aldrich), in a total volume of 25 μL assay buffer (50 mM Tris, 0.15 M NaCl, 5 mM DTT, 0.1% BSA), pH 7.4, at 25° C., in separate wells of a ½ volume 96-well microtiter plate (COSTAR #3690 plate), for 30 min.
The reactions were then terminated by the addition of 100 μL of MG/AM stop solution. MG (Malachite Green) solution was obtained from SIGMA®-Aldrich cat no. M9636, and can be prepared by dissolving 500 mg/L in dH2O, filtering the solution with a Whatman #1 filter, and storing at 4° C. AM (Ammonium Molybdate) solution was obtained from SIGMA®Aldrich cat. no. A7302, 42 g/L in 4 M HCl (345 mL concentration HCl/L, stored at 4° C.). MG/AM mixture was prepared by mixing one part AM to 3 parts MG, stirring for at least 30 min, at room temperature, filtering with a Whatman #5, and storing at 4° C. […]
The plate is then incubated at room temperature for 15 min and, after removing any bubbles, the optical density of the solution in each well was read at A620 (620 nm, spectrophotometer). […]

PC12 cells = assay: NGF-induced neurite outgrowth in PC12 cell lines transfected with full length mouse PTPbr7; type: cell-based, rat; settings: 50 ng/mL NGF for 6 days
From the text: Total mouse brain RNA (Strategene) was subjected to RT-PCR cloning using […] as the 5′ primer, and […] as the 3′ primer (CPMB, see, in particular, Chapter 15, The Polymerase Chain Reaction, Supplement 30). The cDNA clone (full length mouse PTPbr7) was introduced into PC12 cells by transfection using Lipofectamine™ Reagent (Life Technologies) and substantially following the instructional sheet (for adherent cells, see also, CPMB, in particular, Chapter 9, Introduction of DNA into Mammalian Cells, Supplement 39) which specifies the concentration of DNA and reagent, cell density, transfection times, and transfection protocol. Stable cell lines were selected in (200 μg/mL) G418 (Life Technologies), as also provided by the instructional sheet, and the overexpressing cell lines were identified by Northern Blot analysis (see CPMB, in particular, Chapter 4, Preparation and Analysis of RNA, Chapter 4.9.1, Analysis of RNA by Northern Blot Hybridization, Supplement 26). The transfected cell lines were then treated with 50 ng/mL NGF (Life Technologies) for 6 days. The degree of neurite outgrowth was quantitated using photomicrographs where the total number of cells in the field was counted, then the cells were recounted that had one or more neurites that were greater than or equal to one cell body diameter in length, and a “% neurites” was determined.

[3] = tested on: PTPbr7 mRNA in PC12 cells; settings: PC12 cells following treatment with NGF; Sharma and Lombroso 1995; cited from earlier work

fluorescent signal (excitation 485 nm, emission 535 nm) (GST-PTPbr7 [1])	optical density 620 nm (GST-PTPbr7 [2])	Compound	% Neurite on Day 6 (+NGF) (PC12 cells; cell line br7-9, PTPbr7 expression none) [%]	% Neurite on Day 6 (+NGF) (PC12 cells; cell line br7-11, PTPbr7 expression high) [%]	% Neurite on Day 6 (+NGF) (PC12 cells; cell line br7-12, PTPbr7 expression high) [%]	% Neurite on Day 6 (+NGF) (PC12 cells; cell line br7-13, PTPbr7 expression high) [%]	upregulation of PTPbr7 mRNA [3] [fold]
1250.00	0.10	[Na+].[Na+].[Na+].[O]=[V]([O-])([O-])[O-] [sodium orthovanadate]					
		NGF: Nerve growth factor, a neurotrophic factor which mediates the survival, differentiation and maintenance of specific populations of neurons	52	26	24	32	8
